Test results reported in patent US9696306B2, “Methods of reducing levels of tau” (The Trustees of Columbia University in the City of New York, priority 2011, dated 2017).

Tests used:
Assay type in all cases: cell-based, mouse
Aβ40 = Aβ40 detection by human specific ELISA in conditioned medium of Tg2576 mES cell derived neurons; conditions: for secretion of Aβ40: Tg2576 ES cell derived neurons, conditioned medium; for IC50: optimized 96 well platform, 24 hours
Text: (§1) The reliable detection of proteolytic derivatives of APP, including AP, is critical for a physiologically relevant cell based AD model. It was established that ES cell-derived pyramidal neurons express the major proteolytic enzymes mediating APP processing, β-site APP cleaving enzyme (BACE1) and presenilin 1 (PS1) (FIG. 2a). Endogenous APP, BACE1 and PS1 were abundantly detected in ES cell-derived pyramidal neurons at DIV 7, 14, 21. APP and BACE1 were not detected in ES cells, but PS1 was detectable consistent with it's described role in development (Wong, P. C. et al. Nature 387, 288-292 (1997)). To achieve robust and reproducible neuronal expression of human APP, ES cells from the inner cell mass of blastocysts were isolated from a well characterized mouse model of AD, Tg2576. Tg2576 mice express human APP, harboring the Swedish mutation (APPsw) under the control of hamster PrP promoter (Hsiao, K. et al. Science 274, 99-102 (1996)). […] In Tg2576 ES cell derived neurons, APP cleavage products were readily detectable. C-terminal APP fragments (CTFs) were detected in the neuronal lysate by Western blot analysis (FIG. 2b). Both human β- and α-secretase-derived secreted soluble APP (sAPPβ and sAPPα, respectively) were detected using immunoprecipitation of conditioned medium with sβsw and Aβ levels were detected in conditioned media using a human Aβ specific ELISA (FIG. 2b-e). […] Consistent with previous studies in cell models and mouse brain, CTFs resulting from APP cleavage, accumulated in response to γ-secretase inhibitor treatment (FIG. 2b). Identical results were seen when neurons were infected with an APPsw Lenti virus and APP processing was analyzed (FIG. 6a-c). […] Thus, these neurons are suitable for lentiviral mediated genetic manipulation studies.
(§2) To accommodate high-throughput screening, Aβ detection assays using the Tg2576 mES cell derived neurons were miniaturized for a 96 well platform. […] It was determined that the optimal cell density of 1.5×10^5 cells/cm^2 maximized the cell viability signal. […]
(§3) Day 12-30 neurons were infected with a lentivirus carrying the Swedish variant of human APP (pLenti6/hAPPsw). […] The levels of Aβ42 and Aβ40 in conditioned media were determined using sandwich ELISA (Invitrogen) according to the manufacturer's protocol. Total Aβ was detected by immunoprecipitating conditioned medium with 6E10 (Covance) or 7N22 (Invitrogen) antibodies overnight at 4° C. Samples were separated using the NuPAGE gel system and Aβ peptides detected by quantitative Western blotting with 6E10. Full-length APP was detected by Western blot analysis using 6E10 (Covance) or polyclonal antibody against the C-terminus of APP (APP-Ctmaxi) (Okada, H., et al. FASEB J. 24, 2783-94 (2010)). […]

Aβ42 = Aβ42 detection by human specific ELISA in conditioned medium of Tg2576 mES cell derived neurons; conditions: for secretion of Aβ42: Tg2576 ES cell derived neurons, conditioned medium; for IC50: optimized 96 well platform, 24 hours
Text: as §1, §2, §3

sAPPβ = test: Immunoprecipitation/Western blot of secreted sAPPβ from conditioned medium of Tg2576 ES cell derived neurons
Text: (§4) The reliable detection of proteolytic derivatives of APP, including AP, is critical for a physiologically relevant cell based AD model. It was established that ES cell-derived pyramidal neurons express the major proteolytic enzymes mediating APP processing, β-site APP cleaving enzyme (BACE1) and presenilin 1 (PS1) (FIG. 2a). Endogenous APP, BACE1 and PS1 were abundantly detected in ES cell-derived pyramidal neurons at DIV 7, 14, 21. APP and BACE1 were not detected in ES cells, but PS1 was detectable consistent with it's described role in development (Wong, P. C. et al. Nature 387, 288-292 (1997)). […] In Tg2576 ES cell derived neurons, APP cleavage products were readily detectable. C-terminal APP fragments (CTFs) were detected in the neuronal lysate by Western blot analysis (FIG. 2b). Both human β- and α-secretase-derived secreted soluble APP (sAPPβ and sAPPα, respectively) were detected using immunoprecipitation of conditioned medium with sβsw and Aβ levels were detected in conditioned media using a human Aβ specific ELISA (FIG. 2b-e). […] Identical results were seen when neurons were infected with an APPsw Lenti virus and APP processing was analyzed (FIG. 6a-c). […]
(§5) Day 12-30 neurons were infected with a lentivirus carrying the Swedish variant of human APP (pLenti6/hAPPsw). […] Samples were separated using the NuPAGE gel system and Aβ peptides detected by quantitative Western blotting with 6E10. […]

sAPPα = test: Immunoprecipitation/Western blot of secreted sAPPα from conditioned medium of Tg2576 ES cell derived neurons
Text: as §4, §5

APP-CTF = test: Western blot of C-terminal APP fragments (CTFs) in lysate of Tg2576 ES cell derived neurons; conditions: neuronal lysate
Text: as §4, §5

Row | SMILES | secretion of Aβ40 (Aβ40) | IC50 (Aβ40) | secretion of Aβ42 (Aβ42) | IC50 (Aβ42) | secretion of sAPPβ (sAPPβ) | level of sAPPα (sAPPα) | CTFs resulting from APP cleavage (APP-CTF)
1 | C[C@@H](NC(=O)c1cc(C(=O)N[C@@H](Cc2ccccc2)[C@H](O)CNC2CC2)cc(N(C)S(C)(=O)=O)c1)c1ccccc1 [BACE inhibitor] | decreased | 44.7 nM | decreased | 7.8 nM | decreased |  | 
2 | C[C@H](NC(=O)Cc1cc(F)cc(F)c1)C(=O)N[C@H]1N=C(c2ccccc2)c2ccccc2N(C)C1=O [Compound E] | inhibited | 0.2 nM | inhibited | 0.2 nM | without affecting | without affecting | accumulated
3 | CC(C)C[C@H](CC(=O)NO)C(=O)N[C@H](C(=O)N[C@@H](C)C(=O)NCCN)C(C)(C)C [TAPI-2] |  |  |  |  |  | decrease | 
